Tests used:
SOS1 = biological target: T1, SOS1 (Homo sapiens, UniProt Q07889); experiment: Immunohistochemical staining of SOS1 on CRC patient-derived organoids; type: cell-based; set-up: endogenous in cells; host or cells: CRC patient-derived organoids MCC19990-002, MCC19990-010, MCC19990-013; details: MCC19990-002, MCC19990-010, MCC19990-013 PDOs, 1 μM, 24 hours, vs DMSO
T1 sequence (Q07889 1-1333): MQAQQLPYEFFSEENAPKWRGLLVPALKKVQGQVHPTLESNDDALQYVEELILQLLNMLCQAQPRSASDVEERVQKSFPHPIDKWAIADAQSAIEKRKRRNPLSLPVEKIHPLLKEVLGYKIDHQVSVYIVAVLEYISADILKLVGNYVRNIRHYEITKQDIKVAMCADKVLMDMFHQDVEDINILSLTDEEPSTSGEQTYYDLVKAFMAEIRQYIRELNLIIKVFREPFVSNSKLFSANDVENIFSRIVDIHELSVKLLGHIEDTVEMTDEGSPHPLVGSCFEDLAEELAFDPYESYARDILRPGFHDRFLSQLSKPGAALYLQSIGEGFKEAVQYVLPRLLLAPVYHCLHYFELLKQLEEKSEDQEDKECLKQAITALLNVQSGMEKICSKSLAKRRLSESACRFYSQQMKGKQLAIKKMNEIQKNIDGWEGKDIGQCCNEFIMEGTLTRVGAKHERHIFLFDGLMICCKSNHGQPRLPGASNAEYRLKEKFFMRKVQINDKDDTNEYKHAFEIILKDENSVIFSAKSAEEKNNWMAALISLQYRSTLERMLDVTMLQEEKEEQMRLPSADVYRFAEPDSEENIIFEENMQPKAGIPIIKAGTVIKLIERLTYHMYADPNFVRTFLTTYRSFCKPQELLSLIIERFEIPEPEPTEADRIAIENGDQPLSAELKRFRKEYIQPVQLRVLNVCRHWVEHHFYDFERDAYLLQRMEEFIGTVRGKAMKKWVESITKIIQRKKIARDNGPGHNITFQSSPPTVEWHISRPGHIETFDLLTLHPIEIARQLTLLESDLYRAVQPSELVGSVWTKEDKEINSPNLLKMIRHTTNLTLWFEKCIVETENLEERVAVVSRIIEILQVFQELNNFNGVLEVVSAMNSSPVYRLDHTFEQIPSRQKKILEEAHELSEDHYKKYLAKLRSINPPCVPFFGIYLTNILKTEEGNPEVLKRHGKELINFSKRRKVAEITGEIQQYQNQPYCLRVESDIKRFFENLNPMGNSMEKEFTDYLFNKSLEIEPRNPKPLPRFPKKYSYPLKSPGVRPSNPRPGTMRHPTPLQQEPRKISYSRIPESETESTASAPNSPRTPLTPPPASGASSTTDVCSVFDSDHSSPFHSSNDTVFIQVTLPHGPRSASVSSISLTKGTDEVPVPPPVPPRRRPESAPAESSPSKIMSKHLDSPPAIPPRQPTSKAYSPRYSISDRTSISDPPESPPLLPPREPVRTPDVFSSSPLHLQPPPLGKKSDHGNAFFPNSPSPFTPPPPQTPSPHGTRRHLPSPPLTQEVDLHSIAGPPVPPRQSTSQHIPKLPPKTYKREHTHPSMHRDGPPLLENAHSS
Protocol: (§1) To one or two confluent wells of organoids was added 1:5 diluted 500 μL of 5 units/mL dispase in HBSS (StemCell: 07913) and incubated at 37° C. in 5% CO2 atmosphere. Organoids were harvested and transferred to a 1.5 mL Eppendorf tube. The pellet was collected after centrifugation at 1500 rpm for 6 min, and washed with 1×PBS. The pellet was resuspended in 1 mL of 4% PFA and incubated at 4° C. overnight. The pellet was resuspended in 100 μL of 37° C. warmed histogel, centrifuged at 1000 rpm for 30 seconds to settle the organoids. The gel was allowed to polymerize at 4° C. for 10 minutes and then the plug was transferred to a 5 mL tube containing 2 mL 70% ethanol, and sent to the histology lab. Organoids were paraffin-embedded and subjected to serial sections for hematoxylin and eosin staining and immunohistochemistry following a common procedure at the histology lab. The slides/sections were cut at 4 micron thickness using a Leica RM2245 microtome. Charged slides were used.
(§2) Immunohistochemical staining of SOS1 on organoids: Slides were stained using a Ventana Discovery Ultra automated system (Ventana Medical Systems, Tucson, AZ) as per manufacturer's protocol with proprietary reagents. Briefly, slides were deparaffinized on the automated system with Discovery Wash Solution (Ventana). Heat-induced antigen retrieval method was used in Cell Conditioning 1 Mild (Ventana). […]

Annexin V = Annexin V expression by IHC in CRC patient-derived organoid models; type: cell-based, human; details: MCC19990-010 and MCC19990-013 PDOs, 1 μM, 24 hours, vs DMSO
Protocol: as §1, §2

In the case of `COc1cc2c(N[C@H](C)c3cc(N)cc(C(F)(F)F)c3)nc(C)nc2cc1OCC(=O)Nc1cccc2c1CN(C1CCC(=O)NC1=O)C2=O` (stereo partly drawn) [P7, 2-((4-(((R)-1-(3-amino-S-(trifluoromethyl)phenyl)ethyl)amino)-6-methoxy-2-methylquinazolin-7-yl)oxy)-N-(2-(2,6-dioxopiperidin-3-yl)-1-oxoisoindolin-4-yl)acetamide], the “SOS1 expression by IHC (SOS1 degradation)” value (SOS1) is reported as “significant SOS1 degradation at varying degrees” and the “Annexin V expression by IHC” value (Annexin V) is reported as “increased membranous expression of Annexin V”.
